Results as given in patent publication US9322066B2, “Predictors for cancer treatment” (priority 2011, dated 2016).

System: relapsed or refractory, rituximab-naive or -sensitive follicular B-cell NHL
Test: Treatment free interval, Vc-R vs rituximab study, by biomarker
Format: in vivo, human
Set-up: Treatment Free Interval, Median: unit not given here
Description: Non-Hodgkin lymphoma (NHL) encompasses several unique malignant lymphoid disease entities that vary in clinical behavior, morphologic appearance, immunologic, and molecular phenotype. […] A randomized, open-label, active-controlled, multicenter, multinational, prospective study to compare the efficacy and safety of the combination of bortezomib and rituximab (Vc-R) to single-agent rituximab in subjects who have relapsed or refractory, rituximab-naive or -sensitive follicular B-cell NHL was performed.
Subjects were centrally randomized to Treatment Groups A (Vc-R) or B (rituximab) in a 1:1 ratio taking into account the following stratification factors: • Follicular Lymphoma International Prognostic Index (FLIPI) score (low [0 or 1 factor], intermediate [2 factors], high [≧3 factors]); • Prior rituximab therapy (yes, no); • Time since last dose of anti-lymphoma therapy (≦1 year, >1 year); • Region (United States/Canada, European Union, Rest of World).
The following clinical endpoints were included in the analysis within each treatment group and an overall comparison was made with the biomarker-related endpoints: Progression-free survival, defined as the interval between the date of randomization and the date of progressive disease (PD) or death, whichever is first reported in the ITT population; overall survival; overall response rate (complete response [CR]+CR unconfirmed [CRu]+partial response [PR]); overall CR rate (CR+CRu); duration of response; time to next anti-lymphoma therapy; and treatment free interval.

[1] = P65 % NUCLEAR STAINING: 0, 1 Prior Line of Therapy, IRC Review
[2] = P65 % NUCLEAR STAINING: ≦5%, 2 Prior Lines of Therapy, IRC Review
[3] = P65 % NUCLEAR STAINING: ≦5%, 5 Prior Lines of Therapy, IRC Review
[4] = P65 % NUCLEAR STAINING: ≦5%, Prior Rituximab Therapy, IRC Review
[5] = P65 % NUCLEAR STAINING: ≦5%, ≦65 years old, IRC Review
[6] = P65 % POSITIVE CYTOPLASMIC SIGNAL: >90%, 1 Prior Line of Therapy, IRC Review
[7] = P65 % POSITIVE CYTOPLASMIC SIGNAL: >90%, No Subgroup, IRC Review
[8] = P65 % POSITIVE CYTOPLASMIC SIGNAL: >90%, White, IRC Review
[9] = P65 % POSITIVE CYTOPLASMIC SIGNAL: >90%, ≦65 years old, IRC Review
[10] = P65 INTENSITY CYTOPLASMIC SIGNAL: ≦1+, Ann Arbor Stage III, IRC Review
[11] = P65 INTENSITY CYTOPLASMIC SIGNAL: ≧2+, 1 Prior Line of Therapy, IRC Review
[12] = P65 INTENSITY CYTOPLASMIC SIGNAL: ≧2+, ≦65 years old, IRC Review
[13] = PSMB1/A171S: G/G, >1 year since last anti-lymphoma treatment, IRC Review
[14] = PSMB1/A171S: G/G, No Subgroup, IRC Review
[15] = PSMB1/A171S: G/G, ≦65 years old, IRC review
[16] = PSMB1/I208N: T/T, >1 year since last anti-lymphoma treatment, IRC Review
[17] = PSMB1/I208N: T/T, No Subgroup, IRC Review
[18] = PSMB1/I208N: T/T, ≦65 years old, IRC review
[19] = PSMB1/P11A: C/G, European Union, IRC Review
[20] = PSMB1/P11A: C/G, No Subgroup, IRC Review
[21] = PSMB1/P11A: C/G, ≦65 years old, IRC review
[22] = PSMB1/P11A: G/G, ≦65 years old, IRC Review
[23] = PSMB1/P193L: C/C, >1 year since last anti-lymphoma treatment, IRC Review
[24] = PSMB1/P193L: C/C, ≦65 years old, IRC review
[25] = PSMB2/E49X: G/G, >1 year since last anti-lymphoma treatment, IRC Review
[26] = PSMB2/E49X: G/G, ≦65 years old, IRC review
[27] = PSMB2/G187V: G/G, >1 year since last anti-lymphoma treatment, IRC Review
[28] = PSMB2/G187V: G/G, ≦65 years old, IRC review
[29] = PSMB2/L159F: C/C, >1 year since last anti-lymphoma treatment, IRC Review
[30] = PSMB2/L159F: C/C, ≦65 years old, IRC review
[31] = PSMB5/L206M: C/C, >1 year since last anti-lymphoma treatment, IRC Review
[32] = PSMB5/L206M: C/C, ≦65 years old, IRC review
[33] = PSMB5/R24C: C/C, >1 year since last anti-lymphoma treatment, IRC Review
[34] = PSMB5/R24C: C/C, ≦65 years old, IRC review
[35] = PSMB6/A234D: C/C, >1 year since last anti-lymphoma treatment, IRC Review
[36] = PSMB6/A234D: C/C, ≦65 years old, IRC review
[37] = PSMB6/P107A: C/C, >1 year since last anti-lymphoma treatment, IRC Review
[38] = PSMB6/P107A: C/C, ≦65 years old, IRC review
[39] = PSMB8/G8R: G/G, >1 year since last anti-lymphoma treatment, IRC Review
[40] = PSMB8/G8R: G/G, ≦65 years old, IRC review
[41] = PSMB8/R141C: C/C, >1 year since last anti-lymphoma treatment, IRC Review
[42] = PSMB8/R141C: C/C, ≦65 years old, IRC review
[43] = PSMB8/V182M: G/G, >1 year since last anti-lymphoma treatment, IRC review
[44] = PSMB8/V182M: G/G, ≦65 years old, IRC review
[45] = PSMB9/G9E: G/G, >1 year since last anti-lymphoma treatment, IRC review
[46] = PSMB9/G9E: G/G, ≦65 years old, IRC review
[47] = PSMB9/V32I: C/C, >1 year since last anti-lymphoma treatment, IRC review
[48] = PSMB9/V32I: C/C, High Tumor Burden, IRC Review
[49] = PSMB9/V32I: C/C, ≦65 years old, IRC review

rituximab
Treatment Free Interval, Median (P27 SIGNAL INTENSITY: ≧2+, Prior Rituximab Therapy, IRC Review): 272 | Treatment Free Interval, Evt/N [1]: 54/79 | Treatment Free Interval, Median [1]: 406 | Treatment Free Interval, Evt/N [2]: 7/9 | Treatment Free Interval, Median [2]: 85 | Treatment Free Interval, Evt/N [3]: 3/3 | Treatment Free Interval, Median [3]: 95 | Treatment Free Interval, Evt/N [4]: 16/21 | Treatment Free Interval, Median [4]: 93 | Treatment Free Interval, Evt/N [5]: 19/29 | Treatment Free Interval, Median [5]: 234 | Treatment Free Interval, Evt/N [6]: 59/89 | Treatment Free Interval, Median [6]: 409 | Treatment Free Interval, Evt/N [7]: 129/204 | Treatment Free Interval, Median [7]: 363 | Treatment Free Interval, Evt/N [8]: 113/179 | Treatment Free Interval, Median [8]: 363 | Treatment Free Interval, Evt/N [9]: 103/154 | Treatment Free Interval, Median [9]: 343 | Treatment Free Interval, Evt/N [10]: 10/11 | Treatment Free Interval, Median [10]: 119 | Treatment Free Interval, Evt/N [11]: 54/85 | Treatment Free Interval, Median [11]: 427 | Treatment Free Interval, Evt/N [12]: 101/152 | Treatment Free Interval, Median [12]: 343 | Treatment Free Interval, Evt/N [13]: 98/165 | Treatment Free Interval, Median [13]: 547 | Treatment Free Interval, Evt/N [14]: 173/276 | Treatment Free Interval, Median [14]: 406 | Treatment Free Interval, Evt/N [15]: 130/198 | Treatment Free Interval, Median [15]: 344 | Treatment Free Interval, Evt/N [16]: 98/165 | Treatment Free Interval, Median [16]: 547 | Treatment Free Interval, Evt/N [17]: 173/276 | Treatment Free Interval, Median [17]: 406 | Treatment Free Interval, Evt/N [18]: 130/198 | Treatment Free Interval, Median [18]: 344 | Treatment Free Interval, Evt/N [19]: 34/49 | Treatment Free Interval, Median [19]: 309 | Treatment Free Interval, Median (PSMB1/P11A: C/G, Female, IRC Review): 406 | Treatment Free Interval, Evt/N [20]: 78/127 | Treatment Free Interval, Median [20]: 409 | Treatment Free Interval, Evt/N [21]: 63/96 | Treatment Free Interval, Median [21]: 406 | Treatment Free Interval, Evt/N [22]: 21/25 | Treatment Free Interval, Median [22]: 269 | Treatment Free Interval, Evt/N [23]: 98/165 | Treatment Free Interval, Median [23]: 547 | Treatment Free Interval, Median (PSMB1/P193L: C/C, No Subgroup, IRC Review): 406 | Treatment Free Interval, Evt/N [24]: 130/198 | Treatment Free Interval, Median [24]: 344 | Treatment Free Interval, Evt/N [25]: 98/165 | Treatment Free Interval, Median [25]: 547 | Treatment Free Interval, Evt/N [26]: 130/198 | Treatment Free Interval, Median [26]: 344 | Treatment Free Interval, Evt/N [27]: 98/165 | Treatment Free Interval, Median [27]: 547 | Treatment Free Interval, Evt/N [28]: 130/198 | Treatment Free Interval, Median [28]: 344 | Treatment Free Interval, Evt/N [29]: 98/165 | Treatment Free Interval, Median [29]: 547 | Treatment Free Interval, Evt/N [30]: 130/198 | Treatment Free Interval, Median [30]: 344 | Treatment Free Interval, Evt/N [31]: 98/165 | Treatment Free Interval, Median [31]: 547 | Treatment Free Interval, Evt/N [32]: 130/198 | Treatment Free Interval, Median [32]: 344 | Treatment Free Interval, Evt/N [33]: 81/137 | Treatment Free Interval, Median [33]: 507 | Treatment Free Interval, Evt/N [34]: 113/170 | Treatment Free Interval, Median [34]: 344 | Treatment Free Interval, Evt/N [35]: 98/165 | Treatment Free Interval, Median [35]: 547 | Treatment Free Interval, Evt/N [36]: 130/198 | Treatment Free Interval, Median [36]: 344 | Treatment Free Interval, Evt/N [37]: 95/159 | Treatment Free Interval, Median [37]: 561 | Treatment Free Interval, Evt/N [38]: 125/189 | Treatment Free Interval, Median [38]: 363 | Treatment Free Interval, Evt/N [39]: 91/155 | Treatment Free Interval, Median [39]: 562 | Treatment Free Interval, Evt/N [40]: 123/189 | Treatment Free Interval, Median [40]: 344 | Treatment Free Interval, Evt/N [41]: 98/165 | Treatment Free Interval, Median [41]: 547 | Treatment Free Interval, Evt/N [42]: 130/198 | Treatment Free Interval, Median [42]: 344 | Treatment Free Interval, Evt/N [43]: 98/165 | Treatment Free Interval, Median [43]: 547 | Treatment Free Interval, Evt/N [44]: 130/198 | Treatment Free Interval, Median [44]: 344 | Treatment Free Interval, Evt/N [45]: 97/163 | Treatment Free Interval, Median [45]: 547 | Treatment Free Interval, Evt/N [46]: 129/196 | Treatment Free Interval, Median [46]: 344 | Treatment Free Interval, Evt/N [47]: 96/160 | Treatment Free Interval, Median [47]: 507 | Treatment Free Interval, Evt/N [48]: 106/142 | Treatment Free Interval, Median [48]: 234 | Treatment Free Interval, Evt/N [49]: 127/192 | Treatment Free Interval, Median [49]: 344
